{"source": "paper PMC5015098", "about": "“Purification, characterization, cytotoxicity and anticancer activities of L-asparaginase, anti-colon cancer protein, from the newly isolated alkaliphilic Streptomyces fradiae NEAE-82” (Scientific Reports, 2016)", "test_system": "T1, L-asparaginase", "T1 construct": "gene EC 3.5.1.1", "conditions": "0.05 M Tris-HCl pH 8.6, 37 °C, 30 min (standard assay)", "data": [{"compound": "NC(=O)C[C@H](N)C(=O)O", "note": "[L-asparagine]", "values": [{"measurement": "Km", "result": 10.1, "unit": "mM"}]}]}
